Reference: ChEMBL document CHEMBL1201862, “PubChem BioAssay data set” (2004)
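Step 1: Grow cells in 96-well plates. Step 2: Expose to compound for 48 hours at 5 concentrations. Step 3: Interpolate endpoints linearly; if unreached, use highest concentration. GI50 is the concentration that inhibits growth by half.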 Activity calls are given as the source filed them. Cut-off read from the data, not from the text of the source: active = GI50 up to about 1.1 µM and inactive = higher.

Experiments:
Assay in all cases: DTP human tumour cell line panel, 48 h
786-0 = test system: 786-0
A549 = test system: A549
ACHN = test system: ACHN
CAKI-1 = test system: CAKI-1
CCRF-CEM = test system: CCRF-CEM
DLD-1 = test system: DLD-1
DMS-114 = test system: DMS-114
EKVX = test system: EKVX
HCC 2998 = test system: HCC 2998
HCT-116 = test system: HCT-116
HL-60 = test system: HL-60
HOP-18 = test system: HOP-18
HOP-62 = test system: HOP-62
HOP-92 = test system: HOP-92
HT-29 = test system: HT-29
IGROV-1 = test system: IGROV-1
K562 = test system: K562
KM12 = test system: KM12
LOX IMVI = test system: LOX IMVI
LXFL 529 = test system: LXFL 529
M14 = test system: M14
M19-MEL = test system: M19-MEL
MOLT-4 = test system: MOLT-4
Malme-3M = test system: Malme-3M
NCI-H226 = test system: NCI-H226
NCI-H23 = test system: NCI-H23
NCI-H460 = test system: NCI-H460
NCI-H522 = test system: NCI-H522
OVCAR-3 = test system: OVCAR-3
OVCAR-4 = test system: OVCAR-4
OVCAR-5 = test system: OVCAR-5
OVCAR-8 = test system: OVCAR-8
RPMI-8226 = test system: RPMI-8226
RXF 393 = test system: RXF 393
RXF 631 = test system: RXF 631
SF-268 = test system: SF-268
SF-295 = test system: SF-295
SF-539 = test system: SF-539
SK-MEL-28 = test system: SK-MEL-28
SK-MEL-2 = test system: SK-MEL-2
SK-MEL-5 = test system: SK-MEL-5
SK-OV-3 = test system: SK-OV-3
SN12C = test system: SN12C
SNB-19 = test system: SNB-19
SNB-78 = test system: SNB-78
SW-620 = test system: SW-620
TK-10 = test system: TK-10
U-251 = test system: U-251
UACC-257 = test system: UACC-257
UACC-62 = test system: UACC-62
UO-31 = test system: UO-31
XF498 = test system: XF498
A498 = test system: A498
COLO 205 = test system: COLO 205
DMS-273 = test system: DMS-273
HCT-15 = test system: HCT-15
KM-20L2 = test system: KM-20L2
SNB-75 = test system: SNB-75
SR = test system: SR

`CCOC(=O)C(=O)Nc1ccccc1CC` was tested, and the GI50 (786-0) was > 100 µM (inactive), the GI50 (A549) was > 100 µM (inactive) and the GI50 (ACHN) was > 100 µM (inactive). For the same compound, the GI50 (CAKI-1) was > 100 µM (inactive), the GI50 (CCRF-CEM) was > 100 µM (inactive) and the GI50 (DLD-1) was > 100 µM (inactive). The GI50 (DMS-114) was > 100 µM (inactive), the GI50 (EKVX) was > 100 µM (inactive) and the GI50 (HCC 2998) was > 100 µM (inactive). The GI50 (HCT-116) was > 100 µM (inactive), the GI50 (HL-60) was > 100 µM (inactive) and the GI50 (HOP-18) was > 100 µM (inactive). The GI50 (HOP-62) was > 100 µM (inactive), the GI50 (HOP-92) was > 100 µM (inactive) and the GI50 (HT-29) was > 100 µM (inactive). For the same compound, the GI50 (IGROV-1) was > 100 µM (inactive), the GI50 (K562) was > 100 µM (inactive) and the GI50 (KM12) was > 100 µM (inactive). For the same compound, the GI50 (LOX IMVI) was > 100 µM (inactive), the GI50 (LXFL 529) was > 100 µM (inactive) and the GI50 (M14) was > 100 µM (inactive). For the same compound, the GI50 (M19-MEL) was > 100 µM (inactive), the GI50 (MOLT-4) was > 100 µM (inactive) and the GI50 (Malme-3M) was > 100 µM (inactive). For the same compound, the GI50 (NCI-H226) was > 100 µM (inactive), the GI50 (NCI-H23) was > 100 µM (inactive) and the GI50 (NCI-H460) was > 100 µM (inactive). For the same compound, the GI50 (NCI-H522) was > 100 µM (inactive), the GI50 (OVCAR-3) was > 100 µM (inactive) and the GI50 (OVCAR-4) was > 100 µM (inactive). For the same compound, the GI50 (OVCAR-5) was > 100 µM (inactive), the GI50 (OVCAR-8) was > 100 µM (inactive) and the GI50 (RPMI-8226) was > 100 µM (inactive). The GI50 (RXF 393) was > 100 µM (inactive), the GI50 (RXF 631) was > 100 µM (inactive) and the GI50 (SF-268) was > 100 µM (inactive). For the same compound, the GI50 (SF-295) was > 100 µM (inactive), the GI50 (SF-539) was > 100 µM (inactive) and the GI50 (SK-MEL-28) was > 100 µM (inactive). The GI50 (SK-MEL-2) was > 100 µM (inactive), the GI50 (SK-MEL-5) was > 100 µM (inactive) and the GI50 (SK-OV-3) was > 100 µM (inactive). The GI50 (SN12C) was > 100 µM (inactive), the GI50 (SNB-19) was > 100 µM (inactive) and the GI50 (SNB-78) was > 10 µM (inactive). The GI50 (SW-620) was > 100 µM (inactive), the GI50 (TK-10) was > 100 µM (inactive) and the GI50 (U-251) was > 100 µM (inactive). For the same compound, the GI50 (UACC-257) was > 100 µM (inactive), the GI50 (UACC-62) was > 100 µM (inactive) and the GI50 (UO-31) was > 100 µM (inactive). The GI50 (XF498) was > 100 µM (inactive).

With `CC1=C(C(=O)Nc2ccccc2)C(c2ccc3c(c2)OCO3)C(C(=O)Nc2ccccc2)=C(C)N1` the GI50 (786-0) was 36.3 µM (inactive), the GI50 (A498) was 19.5 µM (inactive) and the GI50 (A549) was 49.5 µM (inactive). For the same compound, the GI50 (ACHN) was 33.7 µM (inactive), the GI50 (CAKI-1) was 31.3 µM (inactive) and the GI50 (CCRF-CEM) was 15.2 µM (inactive). For the same compound, the GI50 (COLO 205) was 42.7 µM (inactive), the GI50 (DLD-1) was 36.8 µM (inactive) and the GI50 (DMS-114) was 26.2 µM (inactive). For the same compound, the GI50 (DMS-273) was 26.7 µM (inactive), the GI50 (EKVX) was 53.3 µM (inactive) and the GI50 (HCC 2998) was 44.6 µM (inactive). The GI50 (HCT-15) was 33 µM, the GI50 (HL-60) was 18.1 µM (inactive) and the GI50 (HOP-18) was 41.5 µM (inactive). The GI50 (HOP-62) was 41.8 µM (inactive), the GI50 (HT-29) was 37.2 µM (inactive) and the GI50 (IGROV-1) was 60.7 µM (inactive). For the same compound, the GI50 (K562) was 17.5 µM (inactive), the GI50 (KM-20L2) was > 10 µM (inactive) and the GI50 (KM12) was 28.5 µM (inactive). For the same compound, the GI50 (LOX IMVI) was 24.4 µM (inactive), the GI50 (LXFL 529) was 20 µM (inactive) and the GI50 (M14) was 33.7 µM (inactive). For the same compound, the GI50 (M19-MEL) was 40.4 µM (inactive), the GI50 (MOLT-4) was 19 µM (inactive) and the GI50 (Malme-3M) was 62.1 µM (inactive). The GI50 (NCI-H226) was 39.6 µM (inactive), the GI50 (NCI-H23) was 37.2 µM (inactive) and the GI50 (NCI-H460) was 43.9 µM (inactive). The GI50 (NCI-H522) was 17 µM (inactive), the GI50 (OVCAR-3) was 22.7 µM (inactive) and the GI50 (OVCAR-4) was 21.6 µM (inactive). For the same compound, the GI50 (OVCAR-5) was > 10 µM (inactive), the GI50 (OVCAR-8) was 37.9 µM (inactive) and the GI50 (RPMI-8226) was 23.1 µM (inactive). The GI50 (RXF 393) was 11.1 µM (inactive), the GI50 (RXF 631) was 28.7 µM (inactive) and the GI50 (SF-268) was 25.3 µM (inactive). The GI50 (SF-295) was 35.3 µM (inactive), the GI50 (SF-539) was 26.5 µM (inactive) and the GI50 (SK-MEL-28) was 31.6 µM (inactive). For the same compound, the GI50 (SK-MEL-2) was 28.8 µM (inactive), the GI50 (SK-MEL-5) was 33.7 µM (inactive) and the GI50 (SK-OV-3) was 47.3 µM (inactive). The GI50 (SN12C) was 34.2 µM (inactive), the GI50 (SNB-19) was 25.7 µM (inactive) and the GI50 (SW-620) was 3.5 µM (inactive). For the same compound, the GI50 (TK-10) was 59.7 µM (inactive), the GI50 (UACC-257) was 40.9 µM (inactive) and the GI50 (UACC-62) was 30.1 µM (inactive). For the same compound, the GI50 (UO-31) was 29.5 µM (inactive) and the GI50 (XF498) was 24.2 µM (inactive).

In the case of `CCN1CCC(O)(c2ccc(OC)cc2)C(C(=O)c2ccc(OC)cc2)C1` (centres undefined), the GI50 (786-0) is reported as 13.3 µM (inactive), the GI50 (A498) is reported as > 10 µM (inactive) and the GI50 (A549) is reported as 18.1 µM (inactive). The GI50 (ACHN) was 16.4 µM (inactive), the GI50 (CAKI-1) was 17.2 µM (inactive) and the GI50 (COLO 205) was 22.9 µM (inactive). For the same compound, the GI50 (DLD-1) was 16.9 µM (inactive), the GI50 (DMS-114) was 18.7 µM (inactive) and the GI50 (DMS-273) was 22.8 µM (inactive). For the same compound, the GI50 (EKVX) was 30.5 µM (inactive), the GI50 (HCC 2998) was 19.4 µM (inactive) and the GI50 (HCT-116) was 22.8 µM (inactive). For the same compound, the GI50 (HCT-15) was 20.3 µM, the GI50 (HL-60) was 15.9 µM (inactive) and the GI50 (HOP-62) was > 100 µM (inactive). For the same compound, the GI50 (HT-29) was 22 µM (inactive), the GI50 (IGROV-1) was > 100 µM (inactive) and the GI50 (K562) was 26.1 µM (inactive). The GI50 (KM-20L2) was 18.6 µM (inactive), the GI50 (KM12) was 20.5 µM (inactive) and the GI50 (LOX IMVI) was 20 µM (inactive). The GI50 (LXFL 529) was 20 µM (inactive), the GI50 (M14) was 15.7 µM (inactive) and the GI50 (M19-MEL) was 18.3 µM (inactive). The GI50 (MOLT-4) was 17.5 µM (inactive), the GI50 (NCI-H226) was > 100 µM (inactive) and the GI50 (NCI-H23) was 17.7 µM (inactive). The GI50 (NCI-H460) was 24 µM (inactive), the GI50 (NCI-H522) was 1.97 µM (inactive) and the GI50 (OVCAR-3) was 17.6 µM (inactive). For the same compound, the GI50 (OVCAR-4) was 17.7 µM (inactive), the GI50 (OVCAR-5) was 18.4 µM (inactive) and the GI50 (OVCAR-8) was 22.3 µM (inactive). For the same compound, the GI50 (RPMI-8226) was 4.25 µM (inactive), the GI50 (RXF 631) was 21.5 µM (inactive) and the GI50 (SF-268) was 20.6 µM (inactive). The GI50 (SF-295) was > 100 µM (inactive), the GI50 (SF-539) was 17 µM (inactive) and the GI50 (SK-MEL-28) was 3.25 µM (inactive). The GI50 (SK-MEL-2) was 19.6 µM (inactive), the GI50 (SK-MEL-5) was 15.3 µM (inactive) and the GI50 (SK-OV-3) was > 100 µM (inactive). For the same compound, the GI50 (SN12C) was 20 µM (inactive), the GI50 (SNB-19) was 28.6 µM (inactive) and the GI50 (SNB-75) was 16.4 µM (inactive). The GI50 (SNB-78) was 26.1 µM (inactive), the GI50 (SR) was 22.7 µM (inactive) and the GI50 (SW-620) was 10.8 µM (inactive). The GI50 (TK-10) was 3.28 µM (inactive), the GI50 (U-251) was 16.7 µM (inactive) and the GI50 (UACC-257) was 20.6 µM (inactive). The GI50 (UACC-62) was 16.9 µM (inactive), the GI50 (UO-31) was 18.4 µM (inactive) and the GI50 (XF498) was 17.6 µM (inactive).
